logP data for 11 molecules are collected here from the SangsterLogP compilation.

What is called logP is a log measure of how a compound divides between an organic and an aqueous phase. Read a low logP as lower lipophilicity.

`S=C(NC1CCCCC1)N1CCC(c2cnc[nH]2)CC1`: the lipophilicity (logP) came out at 2.4. The same measure for `c1ccc2sc(NCCCc3cnc[nH]3)nc2c1`: 2.71; for `c1ccc2sc(SCCCc3cnc[nH]3)nc2c1`: 3.24; for `O=S(=O)(Cc1ccc(Cl)cc1)NCCCCc1cnc[nH]1`: 2.23. Molecule `c1ccc(-c2c[nH]c(CCCc3cnc[nH]3)n2)cc1` displayed a logP of 2.5. The same measure for `c1ncc(CCCc2nc(C3CCCCC3)c[nH]2)[nH]1`: 2.94; for `Clc1ccc(Cc2noc(CCc3cnc[nH]3)n2)cc1`: 2.51. The same measure for `Clc1ccc2[nH]c(NCCCc3cnc[nH]3)nc2c1`: 2.49. `c1ccc2sc(SCCc3cnc[nH]3)nc2c1` gave a logP of 3.12. Molecule `c1ccc2sc(NCCc3c[nH]cn3)nc2c1` came in with a logP of 2.36. As for `c1ccc(-c2cnc(SCCc3cnc[nH]3)[nH]2)cc1`, the logP was determined as 2.45.
